Reference: patent US20230131025A1, “QUINOLYL PHOSPHINE OXIDE COMPOUND, AND COMPOSITION AND APPLICATION THEREOF” (Betta Pharmaceuticals Co., Ltd., priority 2020, published 2023)

Tests used:
EGFR WT = EGFR WT (Homo sapiens, UniProt P00533); experiment: Kinase inhibition assay (mobility shift); format: biochemical
Protocol: (§1) Experiment 1 Kinase Inhibition Assay Mobility shift assays were performed to determine inhibitory activity of compounds against EGFR^Δ19del/T790M/C797S, EGFR WT and IGF1R kinases. The enzymatic reaction scheme is as follows:
(§2) 1. Preparing 1*Kinase Buffer as follows:
(§3) 2. Preparing compound concentration gradient: the initial concentration of the compound tested in the assay was 3,000 nM or 100 nM, which is then diluted to be 100-fold final concentration in 100% DMSO in a 384-source plate. Compounds in 10 concentrations were diluted in a 3-fold gradient with Precision. 250 nL of compound in 100-fold final concentration was transferred to OptiPlate-384F plate by using a dispenser named Echo 550.
(§4) 3. Preparing kinase solution at 2.5-fold the final concentration with 1×kinase buffer.
(§5) 4. Adding 10 μL of kinase solution at 2.5-fold the final concentration to compound wells and positive control wells respectively; and adding 10 μL of 1×kinase buffer to negative control wells.
(§6) 5. Centrifuging the wells at 1,000 rpm for 30 seconds, mixing the reaction plate well by shaking and incubating it at room temperature for 10 minutes.
(§7) 6. Preparing a mixed solution of ATP and kinase substrate at 5-fold/3-fold the final concentration with 1×Kinase buffer, respectively.
(§8) 7. Initiating the reaction by adding 15 μL of the mixed solution of ATP and kinase substrate at 5-fold/3-fold the final concentration.
(§9) 8. Centrifuging the 384-well plate at 1,000 rpm for 30 seconds, mixing the reaction plate well by shaking and incubating it at room temperature for a corresponding time.
(§10) 9. Adding 30 μL of assay stop solution to stop the kinase reaction, and centrifuging the plate at 1,000 rpm for 30 seconds and mixing it well by shaking.
(§11) 10. Reading the conversion rate with Caliper EZ Reader.
(§12) [formula] • wherein, “Conversion % sample” is the conversion rate reading of the sample;
(§13) “Conversion %_min” is the mean value of the negative control wells, representing the conversion rate readings of the well without enzymatic activity; “Conversion %_max” is the mean value of the positive control wells, representing the conversion rate readings of the wells without compound inhibition. • Dose-response curve is plotted with the logarithmic concentration on the X-axis and percent inhibition on the Y-axis. The fitting of the dose-response curve is made with the module “log(inhibitor) vs. response—Variable slope” of the analysis software GraphPad Prism 5, so that the IC50 value of each compound on enzymatic activity is obtained. • The calculation formula is: Y=Bottom+(Top−Bottom)/(1+10^((Log IC50−X)*HillSlope)).

EGFR Δ19del/T790M/C797S = EGFR Δ19del/T790M/C797S (Homo sapiens, UniProt P00533, T790M/C797S, form not given); experiment: Kinase inhibition assay (mobility shift); format: biochemical
EGFR Δ19del/T790M/C797S, sequence (P00533 with tags, fused parts or gaps DEL746-750/T790M/C797S, form open): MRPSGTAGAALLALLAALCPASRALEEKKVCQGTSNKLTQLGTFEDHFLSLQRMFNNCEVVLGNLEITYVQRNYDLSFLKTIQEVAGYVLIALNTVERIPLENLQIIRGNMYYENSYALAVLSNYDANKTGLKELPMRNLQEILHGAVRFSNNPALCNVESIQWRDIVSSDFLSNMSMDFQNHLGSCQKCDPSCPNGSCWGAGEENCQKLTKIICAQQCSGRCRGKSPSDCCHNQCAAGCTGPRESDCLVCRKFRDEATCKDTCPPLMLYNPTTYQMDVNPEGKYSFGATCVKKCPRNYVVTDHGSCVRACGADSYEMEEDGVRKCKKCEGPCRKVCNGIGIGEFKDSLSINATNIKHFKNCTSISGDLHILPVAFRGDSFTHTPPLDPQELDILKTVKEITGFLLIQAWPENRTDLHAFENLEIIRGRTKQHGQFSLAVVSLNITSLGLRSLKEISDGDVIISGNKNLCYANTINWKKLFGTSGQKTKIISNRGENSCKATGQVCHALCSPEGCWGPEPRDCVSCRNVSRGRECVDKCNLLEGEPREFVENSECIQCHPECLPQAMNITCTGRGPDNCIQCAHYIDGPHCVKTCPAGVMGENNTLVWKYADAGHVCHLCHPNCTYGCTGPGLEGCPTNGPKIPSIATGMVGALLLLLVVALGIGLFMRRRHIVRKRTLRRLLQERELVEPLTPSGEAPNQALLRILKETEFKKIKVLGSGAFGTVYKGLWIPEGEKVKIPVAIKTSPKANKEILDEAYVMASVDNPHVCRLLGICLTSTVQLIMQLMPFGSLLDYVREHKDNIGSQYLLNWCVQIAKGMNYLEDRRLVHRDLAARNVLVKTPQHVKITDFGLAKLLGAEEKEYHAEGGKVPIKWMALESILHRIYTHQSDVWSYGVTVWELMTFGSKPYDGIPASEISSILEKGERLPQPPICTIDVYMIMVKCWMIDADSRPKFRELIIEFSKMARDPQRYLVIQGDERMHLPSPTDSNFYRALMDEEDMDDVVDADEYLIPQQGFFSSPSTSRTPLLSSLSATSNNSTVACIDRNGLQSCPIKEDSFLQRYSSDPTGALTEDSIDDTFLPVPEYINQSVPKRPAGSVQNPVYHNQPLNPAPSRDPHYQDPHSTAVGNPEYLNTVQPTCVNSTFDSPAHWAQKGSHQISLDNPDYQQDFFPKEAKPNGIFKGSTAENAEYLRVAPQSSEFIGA
Protocol: as §1, §2, §3, §4, §5, §6, §7, §8, §9, §10, §11, §12, §13

IGF1R = IGF1R (Homo sapiens, UniProt P08069); experiment: Kinase inhibition assay (mobility shift); format: biochemical
Protocol: as §1, §2, §3, §4, §5, §6, §7, §8, §9, §10, §11, §12, §13

Ba/F3-Δ19del/T790M/C797S = Ba/F3-Δ19del/T790M/C797S (Homo sapiens, UniProt P00533, T790M/C797S, cells depend on it, form not given); experiment: Cell proliferation experiment (CellTiter Glo, 72 hours); format: cell-based; conditions: read-out: Ba/F3/EGFR Δ19del/T790M/C797S IC50
Ba/F3-Δ19del/T790M/C797S, sequence (P00533 with tags, fused parts or gaps DEL746-750/T790M/C797S, form open): as above
Method in brief: (§14)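 Ba/F3 cells overexpressing EGFR Δ19del/T790M/C797S or EGFR WT were seeded at 2000 or 3000 cells/well and exposed 72 h to 9 compound concentrations (3-fold, top 10000 or 1111 nM final, 0.1% DMSO). CellTiter-Glo luminescence gave survival inhibition versus controls; IC50 from nonlinear fit.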

Ba/F3 EGFR WT = Ba/F3 EGFR WT (Homo sapiens, UniProt P00533); experiment: as above; format: cell-based; conditions: read-out: BaF3 EGFR WT IC50
Ba/F3 EGFR WT, sequence (P00533 whole entry, change not shown): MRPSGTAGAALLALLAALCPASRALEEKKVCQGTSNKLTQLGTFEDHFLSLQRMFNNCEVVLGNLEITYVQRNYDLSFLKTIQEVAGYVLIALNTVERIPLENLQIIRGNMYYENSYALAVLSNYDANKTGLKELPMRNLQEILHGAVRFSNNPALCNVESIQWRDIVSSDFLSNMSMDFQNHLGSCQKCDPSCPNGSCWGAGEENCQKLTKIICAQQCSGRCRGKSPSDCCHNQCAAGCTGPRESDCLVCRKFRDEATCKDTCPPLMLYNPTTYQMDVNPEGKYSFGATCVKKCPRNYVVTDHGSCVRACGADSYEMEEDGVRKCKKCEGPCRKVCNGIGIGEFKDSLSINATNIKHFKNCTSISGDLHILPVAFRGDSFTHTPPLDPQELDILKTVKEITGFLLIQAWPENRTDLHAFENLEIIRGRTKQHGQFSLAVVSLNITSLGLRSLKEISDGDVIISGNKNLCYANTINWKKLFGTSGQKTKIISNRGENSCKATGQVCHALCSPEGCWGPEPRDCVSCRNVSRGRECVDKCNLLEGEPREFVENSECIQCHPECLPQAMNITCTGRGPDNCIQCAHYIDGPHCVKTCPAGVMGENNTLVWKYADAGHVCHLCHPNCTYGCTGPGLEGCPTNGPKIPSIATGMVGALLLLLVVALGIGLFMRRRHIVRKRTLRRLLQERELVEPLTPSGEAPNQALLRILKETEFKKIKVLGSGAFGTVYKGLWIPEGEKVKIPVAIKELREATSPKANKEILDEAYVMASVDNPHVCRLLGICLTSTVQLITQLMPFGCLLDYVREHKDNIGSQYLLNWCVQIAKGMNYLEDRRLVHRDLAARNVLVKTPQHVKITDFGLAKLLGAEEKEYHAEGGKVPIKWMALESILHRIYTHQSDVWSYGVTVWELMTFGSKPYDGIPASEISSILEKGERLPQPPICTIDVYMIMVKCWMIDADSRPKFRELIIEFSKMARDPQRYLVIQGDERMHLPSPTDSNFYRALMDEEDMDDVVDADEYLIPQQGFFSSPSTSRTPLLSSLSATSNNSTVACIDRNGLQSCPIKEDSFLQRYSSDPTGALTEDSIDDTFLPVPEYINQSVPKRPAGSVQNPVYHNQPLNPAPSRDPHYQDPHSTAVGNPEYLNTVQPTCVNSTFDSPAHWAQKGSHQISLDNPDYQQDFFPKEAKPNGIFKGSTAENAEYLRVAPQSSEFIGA
Method in brief: as §14

[1] = system: human epidermal cancer cells A431 carrying EGFR WT; experiment: as above; format: cell-based; conditions: Homo sapiens, A-431
Method in brief: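 Cells seeded at 2000 or 3000/well and exposed 72 h to 9-point 3-fold dilutions, top final 10000 nM or 1111 nM, 0.1% DMSO. Viability by CellTiter-Glo luminescence. Inhibition relative to cell and medium controls; IC50 by four-parameter nonlinear regression.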

EGFR WT, sequence (P00533 25-1210): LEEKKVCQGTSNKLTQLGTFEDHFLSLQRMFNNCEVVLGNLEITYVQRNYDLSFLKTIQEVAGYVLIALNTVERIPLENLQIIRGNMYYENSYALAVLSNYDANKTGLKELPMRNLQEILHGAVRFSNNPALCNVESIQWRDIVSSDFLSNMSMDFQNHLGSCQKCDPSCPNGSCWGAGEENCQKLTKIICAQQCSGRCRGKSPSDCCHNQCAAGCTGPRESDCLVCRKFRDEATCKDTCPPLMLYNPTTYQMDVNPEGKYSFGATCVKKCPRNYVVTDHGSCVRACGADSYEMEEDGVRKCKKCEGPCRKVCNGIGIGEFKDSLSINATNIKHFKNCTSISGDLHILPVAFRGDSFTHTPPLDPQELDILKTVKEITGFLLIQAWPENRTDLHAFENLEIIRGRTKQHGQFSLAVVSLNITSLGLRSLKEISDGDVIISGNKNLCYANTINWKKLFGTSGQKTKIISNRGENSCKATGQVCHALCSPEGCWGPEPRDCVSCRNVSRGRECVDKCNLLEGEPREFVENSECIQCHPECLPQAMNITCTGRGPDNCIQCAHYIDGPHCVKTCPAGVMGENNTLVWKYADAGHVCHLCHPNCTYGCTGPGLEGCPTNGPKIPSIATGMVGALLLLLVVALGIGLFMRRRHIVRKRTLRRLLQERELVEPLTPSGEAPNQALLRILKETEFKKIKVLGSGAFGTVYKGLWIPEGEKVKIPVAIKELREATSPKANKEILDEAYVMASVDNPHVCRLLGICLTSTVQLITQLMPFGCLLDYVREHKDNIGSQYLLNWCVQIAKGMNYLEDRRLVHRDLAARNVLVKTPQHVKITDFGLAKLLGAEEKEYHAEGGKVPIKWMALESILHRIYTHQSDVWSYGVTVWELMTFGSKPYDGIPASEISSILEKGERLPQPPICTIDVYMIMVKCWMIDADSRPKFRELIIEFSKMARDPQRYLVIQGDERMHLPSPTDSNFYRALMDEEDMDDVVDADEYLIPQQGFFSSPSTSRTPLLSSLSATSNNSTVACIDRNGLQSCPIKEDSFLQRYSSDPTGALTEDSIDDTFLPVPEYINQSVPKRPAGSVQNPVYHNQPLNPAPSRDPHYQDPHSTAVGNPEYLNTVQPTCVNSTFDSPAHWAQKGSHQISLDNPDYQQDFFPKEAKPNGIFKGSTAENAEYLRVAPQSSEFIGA

Structure (SMILES)	IC50 (EGFR WT) [nM]	IC50 (EGFR Δ19del/T790M/C797S) [nM]	IC50 (IGF1R) [nM]	GI50 (Ba/F3-Δ19del/T790M/C797S) [nM]	GI50 (Ba/F3 EGFR WT) [nM]	IC50 [1] [nM]
CCc1cc(Nc2ncc(Br)c(Nc3ccc4nc(C5CC5)ccc4c3P(C)(C)=O)n2)c(OC)cc1N1CCN(C)CC1 [Compound J-011, (6-((5-Bromo-2-((5-ethyl-2-methoxy-4-(4-methylpiperazin-1-yl)phenyl)amino)pyrimidin-4-yl)amino)-2-cyclopropylquinolin-5-yl)dimethylphosphine oxide]	45.8	0.7	146	4.7	190	1160
COc1cc(N2CCN(C)CC2)c(C#N)cc1Nc1ncc(Br)c(Nc2ccc3nc(C4CC4)ccc3c2P(C)(C)=O)n1 [Compound J-012, 5-((5-Bromo-4-((2-cyclopropyl-5-(dimethylphosphineoxide)quinolin-6-yl)amino)pyrimidin-2-yl)amino)-4-methoxy-2-(4-methylpiperazin-1-yl)benzonitrile]	43.9	0.2	279	3.4	130	830
C#Cc1ccc2c(P(C)(C)=O)c(Nc3nc(Nc4cc(C)c(N5CCC(N6CCN(C)CC6)CC5)cc4OC)ncc3Br)ccc2n1 [Compound J-013, (6-((5-Bromo-2-((2-methoxy-5-methyl-4-(4-(4-methylpiperazin-1 yl)piperidin-1-yl)phenyl)amino)pyrimidin-4-yl)amino)-2-ethynylquinolin-5-yl)dimethylphosphine oxide]	11.4	0.4	28.2	15.3	87	308
C#Cc1ccc2c(P(C)(C)=O)c(Nc3nc(Nc4cc(CC)c(N5CCC(N6CCN(C)CC6)CC5)cc4OC)ncc3Br)ccc2n1 [Compound J-014, (6-((5-Bromo-2-((5-ethyl-2-methoxy-4-(4-(4-methylpiperazin-1-yl)piperidin-1-yl)phenyl)amino)pyrimidin-4-yl)amino)-2-ethynylquinolin-5-yl)dimethylphosphine oxide]	4.7	0.19	58	6	108	514
C#Cc1ccc2c(P(C)(C)=O)c(Nc3nc(Nc4cc(OC)c(N5CCC(N6CCN(C)CC6)CC5)cc4C)ncc3Br)ccc2n1 [Compound J-015, (6-((5-Bromo-2-((5-methoxy-2-methyl-4-(4-(4-methylpiperazin-1-yl)piperidin-1-yl)phenyl)amino)pyrimidin-4-yl)amino)-2-ethynylquinolin-5-yl)dimethylphosphine oxide]	12.1	0.29	12.1	15.8	388	678
CCc1cc(Nc2ncc(Br)c(Nc3ccc4nc(C#N)ccc4c3P(C)(C)=O)n2)c(OC)cc1N1CCC(N2CCN(C)CC2)CC1 [Compound J-016, 6-((5-Bromo-2-((5-ethyl-2-methoxy-4-(4-(4-methylpiperazin-1-yl)piperidin-1-yl)phenyl)amino)pyrimidin-4-yl)amino)-5-(dimethylphosphineoxide)quinoline-2-formonitrile]	4.6	0.3	16.8	5.1	132	379
CCc1cc(Nc2ncc(Br)c(Nc3ccc4nc(C5CC5)ccc4c3P(C)(C)=O)n2)c(OC)cc1N1CCC(N2CCN(C)CC2)CC1 [Compound J-018, (6-((5-Bromo-2-((5-ethyl-2-methoxy-4-(4-(4-methylpiperazin-1-yl)piperidin-1-yl)phenyl)amino)pyrimidin-4-yl)amino)-2-cyclopropylquinolin-5-yl)dimethylphosphine oxide]	7.3	0.3	178	1.9	160	1500
COc1cc(N2CCC(N3CCN(C)CC3)CC2)c(OC)cc1Nc1ncc(Br)c(Nc2ccc3nc(C4CC4)ccc3c2P(C)(C)=O)n1 [Compound J-020, (6-((5-Bromo-2-((2,5-dimethoxy-4-(4-(4-methylpiperazin-1-yl)piperidin-1-yl)phenyl)amino)pyrimidin-4-yl)amino)-2-cyclopropylquinolin-5-yl)dimethylphosphine oxide]	21	0.72	107	2.2	144	983
COc1cc(N2CCC(N3CCN(C)CC3)CC2)c(C#N)cc1Nc1ncc(Br)c(Nc2ccc3nc(C4CC4)ccc3c2P(C)(C)=O)n1 [Compound J-021, 5-((5-Bromo-4-((2-cyclopropyl-5-(dimethylphosphineoxide)quinolin-6-yl)amino)pyrimidin-2-yl)amino)-4-methoxy-2-(4-(4-methylpiperazin-1-yl)piperidin-1-yl)benzonitrile]	19.3	0.3	293	11.7	238	1140
COc1cc(Nc2ncc(Br)c(Nc3ccc4nc(C5CC5)ccc4c3P(C)(C)=O)n2)c(C)cc1N1CCC(N2CCN(C)CC2)CC1 [Compound J-023, (6-((5-Bromo-2-((5-methoxy-2-methyl-4-(4-(4-methylpiperazin-1-yl)piperidin-J-yl)phenyl)amino)pyrimidin-4-yl)amino)-2-cyclopropylquinolin-5-yl)dimethylphosphine oxide]	17	0.28	27	6.4	117	877
COc1cc(Nc2ncc(Br)c(Nc3ccc4nc(C5CC5)ccc4c3P(C)(C)=O)n2)c(C2CC2)cc1N1CCC(N2CCN(C)CC2)CC1 [Compound J-024, (6-((5-Bromo-2-((2-cyclopropyl-5-methoxy-4-(4-(4-methylpiperazin-1-yl)piperidin-1-yl)phenyl)amino)pyrimidin-4-yl)amino)-2-cyclopropylquinolin-5-yl)dimethylphosphine oxide]	114	0.5	140	26.7	373	1380
CCc1cc(Nc2ncc(Br)c(Nc3ccc4nc(C5CC5)ccc4c3P(C)(C)=O)n2)c(C)cc1N1CCC(N2CCN(C)CC2)CC1 [Compound J-027, (6-((5-Bromo-2-((5-ethyl-2-methyl-4-(4-(4-methylpiperazin-1-yl)piperidin-1-yl)phenyl)amino)pyrimidin-4-yl)amino)-2-cyclopropylquinolin-5-yl)dimethylphosphine oxide]	11.1	0.3	61.6	1.4	52	9010
CCc1ccc2c(P(C)(C)=O)c(Nc3nc(Nc4cc(C)c(N5CCC(N6CCN(C)CC6)CC5)cc4OC)ncc3Br)ccc2n1 [Compound J-028, (6-((5-Bromo-2-((2-methoxy-5-methyl-4-(4-(4-methylpiperazin-1-yl)piperidin-1-yl)phenyl)amino)pyrimidin-4-yl)amino)-2-ethylquinolin-5-yl)dimethylphosphine oxide]	19	0.14	116	20.8	155	842
COc1cc(Nc2ncc(Br)c(Nc3ccc4nc(C5CC5)ccc4c3P(C)(C)=O)n2)cc(C)c1N1CCC(N2CCN(C)CC2)CC1 [Compound J-029, (6-((5-Bromo-2-((3-methoxy-5-methyl-4-(4-(4-methylpiperazin-1-yl)piperidin-1-yl)phenyl)amino)pyrimidin-4-yl)amino)-2-cyclopropylquinolin-5-yl)dimethylphosphine oxide]	41.3	0.22	58.1	12.1	98.5	204
